Results published in ChEMBL document CHEMBL4229516, “Design, synthesis and biological evaluation of a series of novel GPR40 agonists containing nitrogen heterocyclic rings” (Bioorg Med Chem Lett, 2018).

What was measured:
[1] = target: T1, Free fatty acid receptor 1 (Homo sapiens, UniProt O14842); assay: Transactivation of human GPR40 expressed in HEK293 cells at 10 uM after 24 hrs by Elk-Gal4 luciferase reporter assay relative to TAK-875; format: functional, cell-based
Mus musculus [2] = assay: Antidiabetic activity in ICR mouse assessed as blood glucose levels at 50 mg/kg, po administered 1 hr prior to glucose challenge measured at 120 mins post glucose challenge (reference value: 53.7 +/- 9.9 mg/dl); format: functional
CYP3A4 = CYP3A4 (Homo sapiens, UniProt P08684); assay: Inhibition of CYP3A4 in human liver microsomes at 5 uM using midazolam as substrate by LC-MS/MS analysis relative to control; format: ADME; settings: probe midazolam
Mus musculus [3] = assay: Antidiabetic activity in ICR mouse assessed as blood glucose levels at 50 mg/kg, po administered 1 hr prior to glucose challenge measured at 60 mins post glucose challenge (reference value: 175.8 +/- 25 mg/dl); format: functional
CYP2D6 [4] = target: T2, CYP2D6 (Homo sapiens, UniProt P10635); assay: Inhibition of CYP2D6 in human liver microsomes at 5 uM using dextromethorphan as substrate by LC-MS/MS analysis relative to control; format: ADME; settings: probe dextromethorphan
[5] = target: T1, Free fatty acid receptor 1; assay: Transactivation of human GPR40 expressed in HEK293 cells after 24 hrs by Elk-Gal4 luciferase reporter assay; format: functional, cell-based
Mus musculus [6] = assay: Antidiabetic activity in ICR mouse assessed as reduction of blood glucose AUC at 50 mg/kg, po administered 1 hr prior to glucose challenge measured after 120 mins post glucose challenge relative to control; format: functional; set-up: scale not given: the % may be the effect or the level left
Mus musculus [7] = assay: Antidiabetic activity in ICR mouse assessed as blood glucose levels at 50 mg/kg, po administered 1 hr prior to glucose challenge measured at 30 mins post glucose challenge (reference value: 227.6 +/- 18.7 mg/dl); format: functional
CYP1A2 [8] = target: T3, CYP1A2 (Homo sapiens, UniProt P05177); assay: Inhibition of CYP1A2 in human liver microsomes at 5 uM using phenacetin as substrate by LC-MS/MS analysis relative to control; format: ADME; settings: probe phenacetin
T3 sequence (P05177 whole entry): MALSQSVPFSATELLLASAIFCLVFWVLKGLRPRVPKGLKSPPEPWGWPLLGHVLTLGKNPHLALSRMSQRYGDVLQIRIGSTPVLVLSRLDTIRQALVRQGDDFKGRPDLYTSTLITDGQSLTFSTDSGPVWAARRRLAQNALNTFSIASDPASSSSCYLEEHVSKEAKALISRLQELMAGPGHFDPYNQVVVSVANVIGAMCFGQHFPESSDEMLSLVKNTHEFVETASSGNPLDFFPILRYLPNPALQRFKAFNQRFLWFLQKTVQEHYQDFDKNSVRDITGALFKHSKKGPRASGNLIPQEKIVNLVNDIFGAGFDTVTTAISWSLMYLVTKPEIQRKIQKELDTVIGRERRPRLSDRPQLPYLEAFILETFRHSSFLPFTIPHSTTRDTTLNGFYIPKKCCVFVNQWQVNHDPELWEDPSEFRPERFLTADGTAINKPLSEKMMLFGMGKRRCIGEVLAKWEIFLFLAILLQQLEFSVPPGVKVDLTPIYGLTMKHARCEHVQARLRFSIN

CYP2C9 = CYP2C9 (Homo sapiens, UniProt P11712); assay: Inhibition of CYP2C9 in human liver microsomes at 5 uM using diclofenac sodium as substrate by LC-MS/MS analysis relative to control; format: ADME; settings: probe diclofenac sodium
[9] = Induction of 16.8 mM glucose-stimulated insulin secretion in ICR mouse primary pancreatic islets assessed per protein at 10 uM after 1 hr by ELISA (reference value: 1.8 +/- 0.6 ng/ml); format: functional, Pancreatic islet
CYP2D6 [10] = target: T2, CYP2D6; assay: Inhibition of CYP2D6 in human liver microsomes at 2 uM using dextromethorphan as substrate by LC-MS/MS analysis relative to control; settings: probe dextromethorphan
Mus musculus [11] = assay: Antidiabetic activity in ICR mouse assessed as blood glucose AUC at 50 mg/kg, po administered 1 hr prior to glucose challenge measured after 120 mins post glucose challenge (reference value: 290 +/ 23.5 mg.hr/dl); format: functional, organism-based; set-up: dose 50 mg/kg, time < 2 hr
CYP1A2 [12] = target: T3, CYP1A2; assay: Inhibition of CYP1A2 in human liver microsomes at 10 uM using phenacetin as substrate by LC-MS/MS analysis relative to control; format: ADME; settings: probe phenacetin

Chain of CYP3A4 (P08684 whole entry): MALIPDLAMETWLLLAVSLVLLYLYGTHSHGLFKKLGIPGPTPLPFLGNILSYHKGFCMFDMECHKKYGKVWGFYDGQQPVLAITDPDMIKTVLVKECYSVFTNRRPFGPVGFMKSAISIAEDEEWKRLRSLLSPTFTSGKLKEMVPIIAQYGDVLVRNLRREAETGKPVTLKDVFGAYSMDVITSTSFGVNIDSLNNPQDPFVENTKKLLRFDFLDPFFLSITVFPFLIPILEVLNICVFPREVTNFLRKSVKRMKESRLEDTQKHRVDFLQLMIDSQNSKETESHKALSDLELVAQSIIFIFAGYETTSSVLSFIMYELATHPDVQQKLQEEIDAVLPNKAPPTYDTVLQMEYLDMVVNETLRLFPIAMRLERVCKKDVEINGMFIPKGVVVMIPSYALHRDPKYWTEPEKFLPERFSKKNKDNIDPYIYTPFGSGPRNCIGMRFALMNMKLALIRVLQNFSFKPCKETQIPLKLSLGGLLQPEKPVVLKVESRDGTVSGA
Chain of CYP2C9 (P11712 whole entry): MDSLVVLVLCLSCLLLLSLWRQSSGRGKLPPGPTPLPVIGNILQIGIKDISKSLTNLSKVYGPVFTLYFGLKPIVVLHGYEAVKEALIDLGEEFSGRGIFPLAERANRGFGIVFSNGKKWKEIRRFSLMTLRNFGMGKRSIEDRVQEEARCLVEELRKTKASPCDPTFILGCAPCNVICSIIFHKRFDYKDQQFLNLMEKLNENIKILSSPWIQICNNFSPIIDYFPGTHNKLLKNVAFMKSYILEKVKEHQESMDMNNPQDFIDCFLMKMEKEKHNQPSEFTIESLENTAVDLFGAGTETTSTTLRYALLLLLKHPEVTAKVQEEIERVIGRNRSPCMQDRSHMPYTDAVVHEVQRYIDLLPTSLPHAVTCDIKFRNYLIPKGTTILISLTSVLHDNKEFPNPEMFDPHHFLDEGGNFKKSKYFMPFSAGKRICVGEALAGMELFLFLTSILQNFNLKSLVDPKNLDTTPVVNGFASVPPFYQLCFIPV
T2 sequence (P10635 whole entry, the tested form may be a part): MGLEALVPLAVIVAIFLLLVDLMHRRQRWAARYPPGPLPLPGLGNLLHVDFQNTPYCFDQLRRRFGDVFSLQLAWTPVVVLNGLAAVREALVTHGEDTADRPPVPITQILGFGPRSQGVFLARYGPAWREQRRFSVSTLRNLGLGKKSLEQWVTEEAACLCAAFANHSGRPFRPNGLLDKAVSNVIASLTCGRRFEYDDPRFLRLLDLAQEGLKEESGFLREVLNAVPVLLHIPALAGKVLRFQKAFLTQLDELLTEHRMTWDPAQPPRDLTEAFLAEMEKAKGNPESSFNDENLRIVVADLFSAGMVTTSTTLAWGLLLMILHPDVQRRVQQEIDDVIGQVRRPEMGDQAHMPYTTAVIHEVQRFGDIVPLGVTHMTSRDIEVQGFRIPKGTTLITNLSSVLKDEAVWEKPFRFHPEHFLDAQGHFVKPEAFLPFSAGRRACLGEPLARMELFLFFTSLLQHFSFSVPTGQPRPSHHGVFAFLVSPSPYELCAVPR
T1 sequence (O14842 whole entry, the tested form may be a part): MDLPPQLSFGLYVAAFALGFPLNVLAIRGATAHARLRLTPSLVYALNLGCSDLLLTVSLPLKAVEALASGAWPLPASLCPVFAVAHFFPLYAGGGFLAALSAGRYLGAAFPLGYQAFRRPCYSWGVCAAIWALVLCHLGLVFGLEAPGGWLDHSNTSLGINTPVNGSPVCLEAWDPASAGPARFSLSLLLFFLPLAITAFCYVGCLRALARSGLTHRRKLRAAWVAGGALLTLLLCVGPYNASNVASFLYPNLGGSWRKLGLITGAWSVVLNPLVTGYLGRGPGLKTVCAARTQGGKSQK

CC(=O)N1CCc2cc(-c3cccc(COc4ccc5c(c4)OC[C@H]5CC(=O)O)c3)ccc2C1
Activity [1]: 5%

Cl.O=C(O)C[C@@H]1COc2cc(OCc3cccc(-c4ccc5c(c4)CCN(Cc4ccccc4)C5)c3)ccc21
Activity (Mus musculus [2]): 49.9 mg/dL
inhibition at 5 µM (CYP3A4): 30.7%
Activity (Mus musculus [3]): 150.2 mg/dL
inhibition at 5 µM (CYP2D6 [4]): 23.6%
EC50 [5]: 1200 nM
Activity [1]: 136%
Activity (Mus musculus [6]): 13.8%
Activity (Mus musculus [7]): 196.2 mg/dL
inhibition at 5 µM (CYP1A2 [8]): 20.9%
inhibition at 5 µM (CYP2C9): 16.2%
Activity [9]: 2.9 ng/mL

O=C(O)C[C@@H]1COc2cc(OCc3cccc(-c4ccc5c(c4)CN(C(=O)Cc4ccccc4)C5)c3)ccc21
Activity [1]: 34.8%

CC(C)(CC(=O)O)c1ccc(OCc2cccc(-c3ccc4c(c3)CN(Cc3ccccc3)CC4)c2)cc1
Activity [1]: 22.8%

O=C(O)COc1ccc(OCc2cccc(-c3ccc4c(c3)CN(Cc3ccccc3)C4)c2)cc1
Activity [1]: 18.9%

C=C[C@H]1C[N@@]2CC[C@H]1C[C@@H]2[C@@H](O)c1ccnc2ccc(OC)cc12 [QUINIDINE]
inhibition at 2 µM (CYP2D6 [10]): 93.3%

O=C(O)COc1ccc(OCc2cccc(-c3ccc4c(c3)CN(Cc3ccccc3)CC4)c2)cc1
Activity [1]: 4.6%

CC(C)(CC(=O)O)c1ccc(OCc2cccc(-c3ccc4c(c3)CN(Cc3ccccc3)C4)c2)cc1
Activity [1]: 23.8%

O=C(O)C[C@@H]1COc2cc(OCc3cccc(-c4cccc5c4CCN(CCc4ccccc4)C5)c3)ccc21
Activity [1]: 54.8%

O=C(O)C[C@@H]1COc2cc(OCc3cccc(-c4ccc5c(c4)CCN(C(=O)c4ccccc4)C5)c3)ccc21
Activity [1]: 39.8%

Cc1cc(OCCCS(C)(=O)=O)cc(C)c1-c1cccc(COc2ccc3c(c2)OC[C@H]3CC(=O)O)c1
Activity (Mus musculus [2]): 49 mg/dL
inhibition at 5 µM (CYP3A4): 34%
Activity (Mus musculus [3]): 120 mg/dL
inhibition at 5 µM (CYP2D6 [4]): 23.2%
AUC (Mus musculus [11]): 2.07e+06 ng·h/mL
Activity (Mus musculus [7]): 155.2 mg/dL
inhibition at 5 µM (CYP1A2 [8]): 28%
inhibition at 5 µM (CYP2C9): 21%
Activity [9]: 2.1 ng/mL

O=C(O)C[C@@H]1COc2cc(OCc3cccc(-c4ccc5c(c4)CN(Cc4ccccc4)C5)c3)ccc21
EC50 [5]: 3000 nM
Activity [1]: 89.8%

Cc1nc2c([nH]1)c(=O)n(C)c(=O)n2Cc1ccco1 [FURAFYLLINE]
inhibition at 10 µM (CYP1A2 [12]): 71.4%

O=C(O)C[C@@H]1COc2cc(OCc3cccc(-c4cccc5c4CCN(C(=O)c4ccccc4)C5)c3)ccc21
EC50 [5]: 2200 nM
Activity [1]: 84.2%

O=C(O)C[C@@H]1COc2cc(OCc3cccc(-c4ccc5c(c4)CCN(CCc4ccccc4)C5)c3)ccc21
EC50 [5]: 4000 nM
Activity [1]: 85%

Cl.O=C(O)C[C@@H]1COc2cc(OCc3cccc(-c4ccc5c(c4)CN(Cc4ccccc4)CC5)c3)ccc21
Activity (Mus musculus [2]): 58 mg/dL
inhibition at 5 µM (CYP3A4): 27.6%
Activity (Mus musculus [3]): 172.7 mg/dL
inhibition at 5 µM (CYP2D6 [4]): 39.5%
EC50 [5]: 800 nM
AUC (Mus musculus [11]): 2.81e+06 ng·h/mL
Activity [1]: 108%
Activity (Mus musculus [7]): 214.1 mg/dL
inhibition at 5 µM (CYP1A2 [8]): 25.7%
inhibition at 5 µM (CYP2C9): 3.94%
Activity [9]: 2.8 ng/mL

O=C(O)C[C@@H]1COc2cc(OCc3cccc(-c4ccc5c(c4)CN(C(=O)c4ccccc4)CC5)c3)ccc21
Activity [5]: 46%

CC(=O)N1Cc2ccc(-c3cccc(COc4ccc5c(c4)OC[C@H]5CC(=O)O)c3)cc2C1
Activity [1]: 36.8%

CCN1CCc2c(cccc2-c2cccc(COc3ccc4c(c3)OC[C@H]4CC(=O)O)c2)C1
Activity [1]: 7.8%

O=C(O)C[C@@H]1COc2cc(OCc3cccc(-c4ccc5c(c4)CN(C(=O)c4ccccc4)C5)c3)ccc21
Activity [1]: 60.8%

O=C(O)C[C@@H]1COc2cc(OCc3cccc(-c4ccc5c(c4)CCN(C(=O)Cc4ccccc4)C5)c3)ccc21
Activity [1]: 31.6%

O=C(O)COc1ccc(OCc2cccc(-c3ccc4c(c3)CCN(Cc3ccccc3)C4)c2)cc1
Activity [1]: 17.8%

O=C(O)C[C@@H]1COc2cc(OCc3cccc(-c4cccc5c4CCN(Cc4ccccc4)C5)c3)ccc21
EC50 [5]: 5400 nM
Activity [1]: 89.4%

O=C(O)C[C@@H]1COc2cc(OCc3cccc(-c4ccc5c(c4)CN(CCc4ccccc4)C5)c3)ccc21
Activity [1]: 77%

O=C(O)C[C@@H]1COc2cc(OCc3cccc(-c4ccc5c(c4)CN(C(=O)Cc4ccccc4)CC5)c3)ccc21
Activity [1]: 20.4%

CC(C)(CC(=O)O)c1ccc(OCc2cccc(-c3ccc4c(c3)CCN(Cc3ccccc3)C4)c2)cc1
Activity [1]: 58.6%

Nc1ccc(S(=O)(=O)Nc2ccnn2-c2ccccc2)cc1 [SULFAPHENAZOLE]
inhibition at 5 µM (CYP2C9): 94.9%

O=C(O)COc1ccc(OCc2cccc(-c3cccc4c3CCN(Cc3ccccc3)C4)c2)cc1
Activity [1]: 28.8%

CC(=O)N1CCc2c(cccc2-c2cccc(COc3ccc4c(c3)OC[C@H]4CC(=O)O)c2)C1
Activity [1]: 43.6%

CC(C)(CC(=O)O)c1ccc(OCc2cccc(-c3cccc4c3CCN(Cc3ccccc3)C4)c2)cc1
EC50 [5]: 800 nM
Activity [1]: 90%
